Measurements reported in PubChem BioAssay AID2060499 (Molecular Pharmacology Branch, DTP, NCI, 2025).

Tested on: 777334-354-R2-J4-PDC tumor spheroids with HUVEC/MSC, viability
Test: Anticancer human tumor 777334-354-R2-J4-PDC patient-derived pancreatic adenocarcinoma cell line growth inhibition [GQUAD]
Settings: for IC50: curve of first compound; for viability, T/C: stronger effect = lower value
Procedure, shortened: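 Viability of tumor cells grown as complex spheroids with endothelial and stromal cells, exposed to drug combinations. Top concentration at or near clinical Cmax (else 10 microM), diluted in half-log increments.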

[1] = second compound 0.0316 µM, first compound 0.0316 µM
[2] = second compound 0.0316 µM, first compound 0.1 µM
[3] = second compound 0.0316 µM, first compound 0.316 µM
[4] = second compound 0.0316 µM, first compound 1 µM
[5] = second compound 0.0316 µM, first compound 3.16 µM
[6] = second compound 0.0316 µM, first compound 10 µM
[7] = second compound 0.1 µM, first compound 0.0316 µM
[8] = second compound 0.1 µM, first compound 0.1 µM
[9] = second compound 0.1 µM, first compound 0.316 µM
[10] = second compound 0.1 µM, first compound 1 µM
[11] = second compound 0.1 µM, first compound 3.16 µM
[12] = second compound 0.1 µM, first compound 10 µM
[13] = second compound 0.316 µM, first compound 0.0316 µM
[14] = second compound 0.316 µM, first compound 0.1 µM
[15] = second compound 0.316 µM, first compound 0.316 µM
[16] = second compound 0.316 µM, first compound 1 µM
[17] = second compound 0.316 µM, first compound 3.16 µM
[18] = second compound 0.316 µM, first compound 10 µM
[19] = second compound 1 µM, first compound 0.0316 µM
[20] = second compound 1 µM, first compound 0.1 µM
[21] = second compound 1 µM, first compound 0.316 µM
[22] = second compound 1 µM, first compound 1 µM
[23] = second compound 1 µM, first compound 3.16 µM
[24] = second compound 1 µM, first compound 10 µM
[25] = second compound 3.16 µM, first compound 0.0316 µM
[26] = second compound 3.16 µM, first compound 0.1 µM
[27] = second compound 3.16 µM, first compound 0.316 µM
[28] = second compound 3.16 µM, first compound 1 µM
[29] = second compound 3.16 µM, first compound 3.16 µM
[30] = second compound 3.16 µM, first compound 10 µM
[31] = second compound 10 µM, first compound 0.0316 µM
[32] = second compound 10 µM, first compound 0.1 µM
[33] = second compound 10 µM, first compound 0.316 µM
[34] = second compound 10 µM, first compound 1 µM
[35] = second compound 10 µM, first compound 3.16 µM
[36] = second compound 10 µM, first compound 10 µM
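Also: spheroids exposed to compounds for 7 days before readout.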

SMILES: CC(C)n1c(=O)n(C)c2cnc3cc(F)c(-c4ccc(OCCCN5CCCCC5)nc4)cc3c21 + CN(C)c1ccc(Nc2c3ccc(NC(=O)CCN4CCCC4)cc3nc3cc(NC(=O)CCN4CCCC4)ccc23)cc1
- IC50 (second compound 0.0316 µM): > 10 µM
- IC50 (second compound 0.1 µM): > 10 µM
- IC50 (second compound 0.316 µM): > 10 µM
- IC50 (second compound 1 µM): > 10 µM
- IC50 (second compound 3.16 µM): > 10 µM
- IC50 (second compound 10 µM): 1.65 µM
- viability, T/C [1]: 103%
- viability, T/C [2]: 94.4%
- viability, T/C [3]: 99.3%
- viability, T/C [4]: 107%
- viability, T/C [5]: 115%
- viability, T/C [6]: 92.3%
- viability, T/C [7]: 94%
- viability, T/C [8]: 93%
- viability, T/C [9]: 115%
- viability, T/C [10]: 104%
- viability, T/C [11]: 113%
- viability, T/C [12]: 93.4%
- viability, T/C [13]: 98.2%
- viability, T/C [14]: 111%
- viability, T/C [15]: 100%
- viability, T/C [16]: 107%
- viability, T/C [17]: 105%
- viability, T/C [18]: 77.5%
- viability, T/C [19]: 81.7%
- viability, T/C [20]: 85.6%
- viability, T/C [21]: 101%
- viability, T/C [22]: 90%
- viability, T/C [23]: 103%
- viability, T/C [24]: 75.2%
- viability, T/C [25]: 84.9%
- viability, T/C [26]: 75.3%
- viability, T/C [27]: 85.6%
- viability, T/C [28]: 83.2%
- viability, T/C [29]: 91.8%
- viability, T/C [30]: 62.1%
- viability, T/C [31]: 81.5%
- viability, T/C [32]: 75%
- viability, T/C [33]: 61.4%
- viability, T/C [34]: 58.6%
- viability, T/C [35]: 42.2%
- viability, T/C [36]: 31.7%

SMILES: CC1COCCN1c1cc(C2(O)CC3CCC(C2)O3)c2cnn(-c3ccn[nH]3)c2n1 (stereo not drawn) + CN(C)c1ccc(Nc2c3ccc(NC(=O)CCN4CCCC4)cc3nc3cc(NC(=O)CCN4CCCC4)ccc23)cc1
- IC50 (second compound 0.0316 µM): 0.599 µM
- IC50 (second compound 0.1 µM): 0.644 µM
- IC50 (second compound 0.316 µM): 0.599 µM
- IC50 (second compound 1 µM): 0.348 µM
- IC50 (second compound 3.16 µM): 0.296 µM
- IC50 (second compound 10 µM): 0.189 µM
- viability, T/C [1]: 96.5%
- viability, T/C [2]: 79.1%
- viability, T/C [3]: 59.8%
- viability, T/C [4]: 40.5%
- viability, T/C [5]: 32%
- viability, T/C [6]: 20.4%
- viability, T/C [7]: 105%
- viability, T/C [8]: 80.3%
- viability, T/C [9]: 58.8%
- viability, T/C [10]: 43.3%
- viability, T/C [11]: 33.9%
- viability, T/C [12]: 20%
- viability, T/C [13]: 96.3%
- viability, T/C [14]: 75.4%
- viability, T/C [15]: 53.2%
- viability, T/C [16]: 45.8%
- viability, T/C [17]: 33.4%
- viability, T/C [18]: 19%
- viability, T/C [19]: 83%
- viability, T/C [20]: 63%
- viability, T/C [21]: 53%
- viability, T/C [22]: 36%
- viability, T/C [23]: 31.4%
- viability, T/C [24]: 19.1%
- viability, T/C [25]: 87.9%
- viability, T/C [26]: 68.8%
- viability, T/C [27]: 46.7%
- viability, T/C [28]: 34.7%
- viability, T/C [29]: 26.9%
- viability, T/C [30]: 16.5%
- viability, T/C [31]: 74.7%
- viability, T/C [32]: 56.1%
- viability, T/C [33]: 45.8%
- viability, T/C [34]: 29.7%
- viability, T/C [35]: 25.5%
- viability, T/C [36]: 16%

SMILES: COc1ccc([C@@H](O)c2cc(-c3ncnc4cc(N5CCOCC5)ccc34)c(F)cc2Cl)nn1 + CN(C)c1ccc(Nc2c3ccc(NC(=O)CCN4CCCC4)cc3nc3cc(NC(=O)CCN4CCCC4)ccc23)cc1
- IC50 (second compound 0.0316 µM): 3.58 µM
- IC50 (second compound 0.1 µM): 3.71 µM
- IC50 (second compound 0.316 µM): 2.97 µM
- IC50 (second compound 1 µM): 2.71 µM
- IC50 (second compound 3.16 µM): 1.86 µM
- IC50 (second compound 10 µM): 1.12 µM
- viability, T/C [1]: 88.8%
- viability, T/C [2]: 88.9%
- viability, T/C [3]: 84.3%
- viability, T/C [4]: 72.4%
- viability, T/C [5]: 53.6%
- viability, T/C [6]: 23.9%
- viability, T/C [7]: 96.6%
- viability, T/C [8]: 81.3%
- viability, T/C [9]: 96.2%
- viability, T/C [10]: 68.8%
- viability, T/C [11]: 55.5%
- viability, T/C [12]: 26.9%
- viability, T/C [13]: 96.8%
- viability, T/C [14]: 83.2%
- viability, T/C [15]: 79.4%
- viability, T/C [16]: 68.7%
- viability, T/C [17]: 48.9%
- viability, T/C [18]: 24.5%
- viability, T/C [19]: 86.2%
- viability, T/C [20]: 86.4%
- viability, T/C [21]: 76.6%
- viability, T/C [22]: 73.1%
- viability, T/C [23]: 45.7%
- viability, T/C [24]: 23.1%
- viability, T/C [25]: 72.5%
- viability, T/C [26]: 81.2%
- viability, T/C [27]: 73.3%
- viability, T/C [28]: 57.8%
- viability, T/C [29]: 42.5%
- viability, T/C [30]: 20.6%
- viability, T/C [31]: 81.3%
- viability, T/C [32]: 71.8%
- viability, T/C [33]: 69.5%
- viability, T/C [34]: 51%
- viability, T/C [35]: 32.9%
- viability, T/C [36]: 17.4%

SMILES: O=C(c1cc(Cc2n[nH]c(=O)c3ccccc23)ccc1F)N1CCN(C(=O)C2CC2)CC1 + CN(C)c1ccc(Nc2c3ccc(NC(=O)CCN4CCCC4)cc3nc3cc(NC(=O)CCN4CCCC4)ccc23)cc1
- IC50 (second compound 0.0316 µM): > 10 µM
- IC50 (second compound 0.1 µM): > 10 µM
- IC50 (second compound 0.316 µM): > 10 µM
- IC50 (second compound 1 µM): > 10 µM
- IC50 (second compound 3.16 µM): > 10 µM
- IC50 (second compound 10 µM): > 10 µM
- viability, T/C [1]: 97.1%
- viability, T/C [2]: 104%
- viability, T/C [3]: 104%
- viability, T/C [4]: 86%
- viability, T/C [5]: 84%
- viability, T/C [6]: 74.3%
- viability, T/C [7]: 88%
- viability, T/C [8]: 82.6%
- viability, T/C [9]: 93.5%
- viability, T/C [10]: 92.1%
- viability, T/C [11]: 88.5%
- viability, T/C [12]: 72.5%
- viability, T/C [13]: 80.6%
- viability, T/C [14]: 94.9%
- viability, T/C [15]: 97.2%
- viability, T/C [16]: 81%
- viability, T/C [17]: 94.1%
- viability, T/C [18]: 66.7%
- viability, T/C [19]: 84.9%
- viability, T/C [20]: 89.8%
- viability, T/C [21]: 86.7%
- viability, T/C [22]: 86.2%
- viability, T/C [23]: 80.4%
- viability, T/C [24]: 65.4%
- viability, T/C [25]: 79.7%
- viability, T/C [26]: 81.7%
- viability, T/C [27]: 68.3%
- viability, T/C [28]: 76.2%
- viability, T/C [29]: 82.6%
- viability, T/C [30]: 69.1%
- viability, T/C [31]: 64.7%
- viability, T/C [32]: 76.7%
- viability, T/C [33]: 76.4%
- viability, T/C [34]: 81%
- viability, T/C [35]: 71%
- viability, T/C [36]: 66.9%
